Laboratory results as given in patent US8124121B2, “Flavors, flavor modifiers, tastants, taste enhancers, umami or sweet tastants, and/or enhancers and use thereof” (Senomyx, Inc., priority 2003, dated 2012).
Values belong to the molecule of their own block, whether it stands above or below them.

Key:
HEK293-Gα15 cells = assay: FLIPR assay on HEK293-Gα15 cells not expressing the human sweet receptor (receptor dependency control); type: cell-based
Text: In order to determine the dependency of hT1R2/hT1R3 for the cell response to different stimuli, selected compounds were subjected to a similar analysis on HEK293-Gα15 cells (not expressing the human sweet receptor).

[1] = test system: savory taste, human panelists; assay: Umami/savory flavor experiments using human panelists (trained panel, difference from reference); type: in vivo; conditions: 12 mM MSG + cpd vs reference 12 mM MSG + 100 μM IMP
Description: General Panelist Selection: Basic screening of sensory taste testers: Potential panelists were tested for their abilities to rank and rate intensities of solutions representing the five basic tastes. Panelists ranked and rated intensity of five different concentrations of each of the five following compounds: sucrose (sweet), sodium chloride (salty), citric acid (sour), caffeine (bitter), and monosodium glutamate (savory). In order to be selected for participation in testing, panelists needed to correctly rank and rate samples for intensity, with a reasonable number of errors
Preliminary Taste Tests: The panelists selected in the above procedure were deemed qualified for performing Preliminary Taste Testing procedures. The preliminary taste tests are used to evaluate new compounds for intensity of basic tastes and off-tastes. A small group of panelists (n=5) taste approximately 5 concentrations of the compound (range typically between 1-100 μM, in half-log cycles, e.g., 1, 3, 10, 30, and 100 μM) in water and in a solution of 12 mM MSG to evaluate enhancement. Panelists rate the five basic tastes (sweet, salty, sour, bitter, and savory) as well as off-tastes (such as chemical, metallic, sulfur) on a labeled magnitude scale. Samples are served in 10 mL portions at room temperature. The purpose of the test is to determine the highest concentration at which there is no objectionable off-taste, and determine if obvious savory taste or enhancement of savory taste exists at any of the concentrations tested.
Trained Panelist Selection: A trained expert panel was used to further evaluate compounds that had been tested with the preliminary taste test.
Panelists for the trained panel were selected from the larger group of qualifying taste panelists. Panelists were further trained on savory taste by ranking and rating experiments using MSG and IMP combinations. Panelists completed a series of ranking, rating, and difference from reference tests with savory solutions. In ranking and rating experiments, panelists evaluated easy MSG concentrations (0, 6, 18, 36 mM) and more difficult MSG concentrations (3, 6, 12, 18 mM MSG) in water.
Compound testing with Trained Panel: Compounds tested by the trained panel were evaluated in difference from reference experiments. […] Test samples were solutions with varying amounts of MSG, IMP, and the compound.
Compounds were tested against the reference in samples with and without 12 mM MSG. All samples were presented in 10 ml volumes at room temperature. Two sessions were completed for each compound tested to evaluate panel reproducibility.

un-induced I-17 cells = assay: FLIPR assay on un-induced I-17 cells (receptor dependency control); type: cell-based; conditions: I-17 cells not induced with mifepristone; compounds presented at 10 μM
Description: In order to determine the dependency of hT1R1/hT1R3 for the cell response to different stimuli, selected compounds were subjected to a similar analysis on I-17 cells that had not been induced for receptor expression with mifepristone (designated as un-induced I-17 cells). […] Compounds were presented to un-induced umami cells at […]—or three times the maximum stimulation used in the dose-response analysis.

Structure (SMILES): O=C(CO)[C@@H](O)[C@H](O)[C@H](O)CO [D-Fructose]
functional response in the FLIPR assay using HEK293-Gα15 cells (HEK293-Gα15 cells): do not show any functional response

melting point: 116 to 117 °C
Structure (SMILES): COc1cc(C)ccc1CNC(=O)C(=O)NCCc1ccc(C)cn1 [Example 157, N^1-(2-methoxy-4-methylbenzyl)-N^2-(2-(5-methylpyridin-2-yl)ethyl)oxalamide]
Taste Data: concentration of cpd with 12 mM MSG that is as strong as 12 mM MSG + 100 μM IMP [1]: 12 mM MSG + 0.3 μM cpd as strong as

Structure (SMILES): N[C@@H](CCC(=O)O)C(=O)[O-].[Na+] [monosodium glutamate]
functional response in the FLIPR assay using un-induced umami cells (un-induced I-17 cells): do not show any functional response
